Source: US20240116952A1, “KRAS INHIBITOR AND PHARMACEUTICAL USES THEREOF” (RISEN (SUZHOU) PHARMA TECH CO., LTD., priority 2022, published 2024)
“And” between values parts separate entries of the source, which are not always exact repeats. Identical values can stand only once. Like-named read-outs stand apart in the source and are kept apart here.

Tests used:
[1] = test system: AsPC-1 pancreatic cancer cells; experiment: Efficacy study in mouse AsPC-1 CDX model, compounds given orally; assay type: in vivo, Balb/C nude mice; details: BID; for effect on mouse body weight: given orally; for TGI (%): oral, Compound A1 100 mg/kg for 12 days, Compound 1 126 mg/kg (molar equivalent) for 16 days
Description: (§1) Balb/C nude mice, aged 6-8 weeks, were inoculated subcutaneously with 5×10^6 AsPC-1 pancreatic cancer cells, in 0.1 ml PBS. Eleven days post-inoculation, tumor bearing animals were randomized into Vehicle (four mice), Compound A1 (four mice) and Compound 1 (five mice), followed by oral dosing twice daily at 100 mg/kg for Compound A1 and 126 mg/kg for Compound 1 (Table 6). Tumor volume was measured every three days using a caliper, and tumor size was calculated using the formula TV=length×width^2×0.5. Tumor growth inhibition (TGI) was calculated using the given formula TGI=[1−(Vtx_t−Vtx_0)/(Vct_t−Vct_0)]×100%, where Vtx_t means tumor volume in treatment group measured at time point t, Vtx_0 means tumor volume of treatment group measured at time point 0, Vct_t means tumor volume of vehicle group measured at time point t, and Vct_0 means tumor volume of vehicle group measured at time point 0.

[2] = Mouse PK study: blood AUC of compound A1 after oral or intravenous administration; assay type: in vivo; details: ICR mice, equimolar dose
Description: A total 126 ICR mice (male, 30-34 g) were randomly divided into 42 groups with 3 animals/group (oral or intravenous administration). Blood samples were collected at 0.167, 0.5, 1, 2, 4, 6, 8, and 24 hours post-dose for oral group and 0.083, 0.25, 0.5, 1, 2, 4, 6, and 8 hours post-dose for intravenous group. The test compounds were dissolved into vehicle solutions (5% DMSO+5% Solutol+90% 20% SBE-β-CD solvents).
Animals were administered with compound A1 or exemplary test compounds by intravenous bolus administration at 3 mg/kg (equimolar dose to compound A1) and oral administration at 10 mg/kg (equimolar dose to compound A1) after fasted 12 hours, respectively. Post-dose blood samples were collected at preset time point (50 μL/animal/time point), and 20 μL blood was accurately separated into 200 μL eppendorf (EP) tube containing acetonitrile and internal standard. The supernatant was prepared by centrifuging the blood samples at approximately 4° C., 12000 rpm for 5 minutes. All samples were then quickly frozen over dry ice and kept at −60° C. or lower until analysis. The supernatant was analyzed by LC-MS/MS to detect the concentration of test compounds and metabolites.

AsPC-1 cells = experiment: Tumor growth inhibition in mouse AsPC-1 CDX model, compounds given parenterally (IP/IV); assay type: in vivo; details: for TGI (%): 27 days; for tumor growth inhibition compared to vehicle control: FIG. 6
Description: as §1
Balb/C nude mice bearing tumors derived from AsPC-1 cells as described previously, were grouped into Vehicle intraperitoneal (IP) (five mice), Compound A1 IP (five mice), Compound A1 intravenous (IV) (three mice), Compound 52 IP (five mice) and Compound 52 IV injections (six mice). All compounds were administered once daily at equal molarity (Compound A1, 6 mg/kg) for 27 days. Tumor volume was measured and calculated as described previously.

[3] = test system: GP2D colonrectal cancer cells; assay type: in vivo; details: for TGI (%): 21 days
Description: After Balb/C nude mice (aged 6-8 weeks) were inoculated subcutaneously with 5×10^6 GP2D colonrectal cancer cells, in 0.1 ml PBS, they were grouped 11 days post-inoculation and treated with intraperitoneal injections of the given compounds for 21 days. Note that Compound 52 at 40.3 mg/kg and Compound 53 at 43 mg/kg are molar equivalent to 18 mg/kg of Compound A1. Tumor volume and TGI were measured and calculated as described before (Table 8).
Balb/C nude mice, aged 6-8 weeks, were inoculated subcutaneously with 5×10^6 GP2D colonrectal cancer cells, in 0.1 ml PBS. Eleven days post the inoculation, tumor bearing animals were randomly grouped based on given compounds and vehicle. Compound A1, as positive control, was IP administered at 18 mg/kg qd for 21 days. Compound 52 at 40.3 mg/kg (molar equivalent to 18 mg/kg of Compound A1) was IV administered q3d, and subsequently switched to 27 mg/kg for 21 days. Compound 53 at 43 mg/kg (molar equivalent to 18 mg/kg of Compound A1) was either IV or IP dosed q3d for 21 days (Table 8).

[4] = IP, qd, Compound A1 6 mg/kg, Compound 52 13.44 mg/kg (molar equivalent)
[5] = IP, qd, Compound A1 18 mg/kg, Compound 52 40.3 mg/kg (molar equivalent)

Q: With `C#Cc1c(F)ccc2cc(O)cc(-c3ncc4c(N5CC6CCC(C5)N6C(=O)OC(C)OC(=O)CCC)nc(OC[C@@]56CCCN5C[C@H](F)C6)nc4c3F)c12` (stereo partly drawn) [Compound 1] as the compound, how does the “effect on mouse body weight” value [1] read?
A: Its value is “Neither Compound 1 nor A1 adversely affected mouse body weight”.

Q: And the “TGI (%)” value [1]?
A: Its value is 53.5% and 53.95%.

Q: For `C#Cc1c(F)ccc2cc(O)cc(-c3ncc4c(N5CC6CCC(C5)N6C(=O)OC(C)OC(=O)CC(C)C)nc(OC[C@@]56CCCN5C[C@H](F)C6)nc4c3F)c12` (stereo partly drawn) [Compound 10], which “AUC of A1 increased compared to direct oral administration of A1” value [2] is on record?
A: The value was “more than 8.5 times”.

Q: What does the source list for `C#Cc1c(F)ccc2cc(OC(=O)OC(COC(=O)CCCCCCCC)COC(=O)CCCCCCCC)cc(-c3ncc4c(N5CC6CCC(C5)N6)nc(OC[C@@]56CCCN5C[C@H](F)C6)nc4c3F)c12` [Compound 52]?
A: TGI (%) (AsPC-1 cells; [4]): 36.12%; TGI (%) (AsPC-1 cells; IV, qd, Compound 52 13.44 mg/kg (molar equivalent to 6 mg/kg A1)): 47.22%; tumor growth inhibition compared to vehicle control (AsPC-1 cells; intraperitoneal administration): significant tumor growth inhibition; tumor growth inhibition compared to vehicle control (AsPC-1 cells; intravenous injection): significant tumor growth inhibition; TGI (%) [3, 5]: 87.1%; body weight of mice ([3]; IV 27 mg/kg once every 3 days): remained normal; TGI (%) ([3]; IV, q3d, 27 mg/kg (molar equivalent to 12 mg/kg A1)): 80.0%; death of recipient animals ([3]; intravenously dosed at 40.3 mg/kg (molar equivalent to 18 mg/kg A1)): 50%; growth inhibition of tumors harboring the KRAS^G12D mutation ([3]; parenterally administered with the dosages of Table 8): significant growth inhibition

Q: With `C#Cc1c(F)ccc2cc(O)cc(-c3ncc4c(N5CC6CCC(C5)N6)nc(OC[C@@]56CCCN5C[C@H](F)C6)nc4c3F)c12` [Compound A1, reference compound] as the compound, how does the “effect on mouse body weight” value [1] read?
A: The value was “Neither Compound 1 nor A1 adversely affected mouse body weight”.

Q: What about the “TGI (%)” value [1] of the same compound?
A: The value was 9.07%.

Q: And the “TGI (%)” value (AsPC-1 cells; [4])?
A: The value was 37.27%.

Q: And the “animal death observed (footnote D in TGI column)” value (AsPC-1 cells; IV, qd, Compound A1 6 mg/kg, 3 mice)?
A: Its value is “caused the death of all mice within 24 hours”.

Q: What about the “tumor growth inhibition compared to vehicle control” value (AsPC-1 cells; intraperitoneal administration) of the same compound?
A: The value was “significant tumor growth inhibition”.

Q: And the “TGI (%)” value [3, 5]?
A: Its value is 85.0%.
